Measured values reported in a melting point compilation (Tetko et al.; mined from patent text by program, amines drawn as free bases though some values may be those of a salt).

Row | SMILES | melting point
1 | CC1=NN(c2ccccc2)C(=O)C1C(=O)Nc1ccc(O)cc1 (stereo unspecified) | 135 to 140 °C
2 | COC(=O)[C@@](N)(CCSC)C(=O)c1ccc(NC[C@@H]2C[C@@H](O)CN2C(=O)OC(C)(C)C)cc1-c1ccccc1 | 81 °C
3 | Nc1ccc(F)cc1-c1ccc(Cl)c(Cl)c1 | 58 °C
4 | CN(CC#N)[C@H](COCc1cc(C(F)(F)F)cc(C(F)(F)F)c1)c1ccccc1 | 110 to 111 °C
5 | CC1CC=C(Nc2ccccc2)c2ncc(C(=O)O)c(=O)n21 (stereo unspecified) | 160 to 162 °C
6 | COc1ccc(Cn2ncc3nc(O)nc(O)c32)cc1 | 288 to 292 °C
7 | CCS(=O)(=O)c1ccc(Oc2ccc3c(c2)OCO3)nc1 | 97 to 99 °C
8 | CCNC(=O)/C=C/c1cccc(Br)c1 | 89 to 90 °C
9 | Cc1nc(S(=O)(=O)n2ccc(/C=C/C(=O)NO)c2)cn1C | 190 to 194 °C
10 | Nc1c(Cl)cc(C(O)CNCCCCCOCCCc2ccc(C(=O)O)o2)cc1Cl (stereo unspecified) | 89 to 91 °C
11 | COc1cc(CN2CCN(C(=S)C3(C)CCc4c(C)c(O)c(C)c(C)c4O3)CC2)cc(OC)c1OC (stereo unspecified) | 82 °C
12 | Cc1cccc(-c2nc(N)ncc2-c2ccc(=O)n(C(C)C)n2)c1 | 198 °C
13 | CCCCNC(=O)c1cc(=O)c(Oc2ccccc2)co1 | 149 to 151 °C
14 | O=C(Cc1ccc([N+](=O)[O-])cc1)CN1C(=O)c2ccccc2C1=O | 184 °C
15 | C[C@@](O)(C(=O)Nc1ccc(S(=O)(=O)c2ccccc2NCCO)cc1Cl)C(F)(F)F | 68 to 70 °C
16 | CC(C)n1c(C=O)c(-c2ccc(F)cc2)c(-c2ccccc2)c1C(N)=O | 187 to 188 °C
17 | O=CC(Br)c1ccc(Cl)cc1 (stereo unspecified) | 178 °C
18 | O=C1CCCC2=C1C(c1ccc(Cl)c(C(F)(F)F)c1)C1=C(CCS1)N2 (single isomer, unassigned; (+)) | > 250 °C
19 | O=C(OC1c2ccccc2C(=O)N1c1ccc2ccc(Cl)nc2n1)N1CCN(C(=O)C(F)(F)F)CC1 (stereo unspecified) | 218 °C
20 | CCn1c(C)nc2cc(S(=O)(=O)c3cccc4cnccc34)c([N+](=O)[O-])cc21 | 245 to 250 °C
21 | C#CC[C@H](c1nc2cc(Cl)ccc2c(=O)n1Nc1ccccc1)N(CCCN)C(=O)c1cc(F)c(F)c(F)c1F | 155 to 158 °C
22 | Cc1cc(Br)ccc1N1C(=O)c2ccc(Cl)cc2C1=O | 210 to 212 °C
23 | COc1ccc2cccc3c2c1C(CCNC(C)=O)CC3 (stereo unspecified) | 98 °C
24 | N#Cc1nn(-c2c(Cl)cc(C(F)(F)F)cc2Cl)c(Br)c1[N+](=O)[O-] | 147 to 150 °C
25 | Cc1nnc(C(C)C)n1C1CC2CCC(C1)N2CCC(NC(=O)C1CCC(F)(F)CC1)c1ccc(N)cc1 (stereo unspecified) | 103 to 105 °C

Row | SMILES | melting point
26 | O=C(Nc1cccnc1)N1CCc2cc(I)c(Cl)cc21 | > 200 °C
27 | COc1ccc(-c2nccc(C(N)=O)c2N)cc1 | 179 to 181 °C
28 | COc1ccccc1CNc1ccc2c(C(=N)NO)cccc2n1 | 161 °C
29 | O=C1NC(=O)C(c2ccc(-c3ccccc3)cc2)(N2CCN(c3ccc(N4C(=O)CCC4=O)cc3)CC2)C(=O)N1 | 310 to 311 °C
30 | CC(=O)N[C@@H]1C(O)O[C@H](COC(C)=O)[C@@H](O)[C@@H]1O (stereo partly specified) | 47 to 51 °C
31 | COc1ccc(C2(O)OC(=O)C(c3ccc4nsnc4c3)=C2Cc2ccccc2)cc1 (stereo unspecified) | 40 to 41 °C
32 | CCCC(C)Nc1c([N+](=O)[O-])cc(S(C)(=O)=O)c(C)c1[N+](=O)[O-] (stereo unspecified) | 85 to 88 °C
33 | Cc1ccc(CS(=O)c2nc3cc4c(cc3[nH]2)OCO4)nc1 (stereo unspecified) | 185 to 187 °C
34 | COc1cccc(-c2cc(O)c(SCc3ccccc3)c(=O)o2)c1 | 146 to 147 °C
35 | O=C(Nc1cc(-c2nc3ccccc3[nH]2)ccn1)c1ccccc1 | 145 to 146 °C
36 | COC1(c2cnc(Sc3ccc(/C(C)=N/O)cc3)s2)CCOCC1 | 114 to 116 °C
37 | O=C(O)C(CCC(=O)N1CCOCC1)Cc1cccc2ccccc12 (stereo unspecified) | 130 to 135 °C
38 | CCOC(=O)c1cccc(-c2nc(-c3ccc(OCC)cc3)cs2)c1 | 108 to 110 °C
39 | Cc1ccnc(N2CCN(CCc3c(C)n4c5c(cc(NC(=O)c6ccccc6)cc35)CCC4)CC2)c1 | 218 °C
40 | NC1=NS(=O)N=C1NCCCN(Cc1ccncc1)c1ccccn1 (stereo unspecified) | 103 to 110 °C
41 | CC(C)(C)OC(=O)Nc1cc(N2CCC(OCCOC3CCCCO3)CC2)c(-c2ccc(F)cc2)cc1N (racemic) | 56 to 58 °C
42 | CCOc1cc(C=O)cc2c1OC1(C=C2Br)CCN(C(=O)OC(C)(C)C)CC1 | 148 to 150 °C
43 | N#Cc1[nH]c(Br)c([N+](=O)[O-])c1Br | 170 to 175 °C
44 | Cc1ccc(-c2nc3cc(N=C=S)ccc3o2)o1 | 110 to 121 °C
45 | C[C@H]1C(=O)OCN1C(=O)OCc1ccccc1 | 89 to 91 °C
46 | O=S1(=O)c2cccc3cccc(c23)N1CCCN1CCN(c2ccc(O)cc2)CC1 | 185 °C
47 | COc1c(OCCC(NC(=O)OCc2ccccc2)C(=O)O)cc2c(c1OC)C1=C(CCC1)C(=NNC1=CCNCN1)CC2 (racemic) | 172 °C
48 | COc1ccc(CN2CCC(c3cn(Cc4ccc(Cl)s4)c4cccnc34)CC2)cc1C(=O)O | 201 to 202 °C
49 | CCOC(=O)/C=C(/c1ccc(OCC)cc1)c1cc(Cl)cc(Cl)c1 | 104 to 106 °C
50 | COC(=O)C1=CON2CCC34C=CC(O)CC3Oc3c(OC)ccc(c34)C12 (stereo unspecified) | 151 to 154 °C

Continued, values first:

Row | melting point | SMILES
51 | 220 to 221 °C | O=C(COc1ccc(-c2c(Cl)c(CN3C(=O)CCC3=O)nc3sc4c(c23)CCS(=O)C4)cc1)NCc1ccccc1 (stereo unspecified)
52 | 66 to 68 °C | Cc1ccc(Cl)cc1-c1noc(CCC#Cc2ccccn2)n1
53 | 227 to 229 °C | COCOc1ccc(-c2ccc3c(c2)C=C(C(=O)Nc2ccc(CN(C)C4CCOCC4)cc2)CCS3(=O)=O)cc1
54 | 38 to 42 °C | COc1ccc(CCC(=O)CCI)cc1
55 | 177 to 179 °C | CS(=O)(=O)c1ccc(-c2sc(-c3ccccc3Cl)nc2-c2ccc(Cl)cc2)cc1
56 | 128 to 133 °C | CC(C(=O)O)N(C(=O)OC(C)(C)C)c1ccc(N)cc1 (stereo unspecified)
57 | 210 °C | Cc1noc(NS(=O)(=O)c2ccc(-c3cccs3)s2)c1Br
58 | 164 to 165 °C | COc1ccc(C(=O)Nc2cc(NC(=O)c3ccc(N(C)CCCN(C)C)cc3)ccc2C)cc1OC
59 | 215 to 216 °C | COc1ccc(-c2sc3c(c2C)c(=O)c(C(C)=O)cn3Cc2ccccc2F)cc1
60 | 120 to 124 °C | Cn1ccnc1-c1ccc(C(=O)CNC(=O)[C@H](Cc2ccccn2)NC(=O)OC(C)(C)C)cc1
61 | 169 to 174 °C | COc1cccc2c1C(=O)N(CCl)S2(=O)=O
62 | 47 to 49 °C | COc1cc(SC)ccc1O
63 | 61 °C | Cc1nc(N=CN(C)C)nc(N(C)C)n1
64 | 266 °C | CN(c1ccc(O)cc1)c1cc2ccc(Cl)cc2c(O)n1
65 | 140 to 141 °C | OCCNc1c(Br)cnc2cc(C(F)(F)F)ccc12
66 | 85 to 87 °C | COC(=O)[C@H](Cc1ccc(NC(=O)c2c(Cl)cccc2Cl)cc1)NC(=O)C1(Cc2ccc(OC)cc2)CCCCC1
67 | 162 to 164 °C | COC(=O)CC1=C(C)/C(=C/c2ccc(S(C)(=O)=O)cc2)c2ccc(F)cc21
68 | 222 to 223 °C | O=Cc1c[nH]c(=O)c2ccccc12
69 | 57 to 63 °C | CCc1nc2cc(F)ccc2c(=O)n1NC(=O)C(C)c1ccccc1 (stereo unspecified)
70 | 150 °C | CS(=O)(=O)c1ccc(C(=O)c2c(S(C)(=O)=O)noc2C2CC2)c(Cl)c1
71 | 100 to 112 °C | COc1ccc(C2(O)CCN(c3ccc(OC)nc3-c3ccc(OC(F)(F)F)cc3)CC2)cc1
72 | 221 °C | COC(=O)C1=C(C)Nc2nc(N3CCOCC3)nc(N3CCOCC3)c2C1c1ccccc1C#N (stereo unspecified)
73 | 128 °C | CCCCc1nc(SCC)c(CO)[nH]1
74 | 150 to 151 °C | COc1ccc(OCCCCCCc2c(C)n[nH]c2C)c(Cl)c1
75 | 109 to 111 °C | CS(=O)(=O)Nc1ccc(C=O)cc1Sc1ccc(F)cc1F
76 | 164 to 165 °C | CCCC(=O)Cc1ccc(C(=O)Nc2ccc3cc(CN4CCCCC4)cnc3c2C)cc1

Row | melting point | SMILES
77 | 208 to 210 °C | CC(C)CNc1sc(-c2cc[nH]n2)c2c1C(=O)CC(C)(C)C2
78 | 70 °C | CN(Cc1ccccc1)C1c2ccccc2CCCC1O (stereo unspecified)
79 | 273 to 276 °C | CS(=O)(=O)c1c[nH]c(=O)c(I)c1
80 | 178 to 180 °C | CCOC(=O)C1C(=O)Nc2ccccc2C1c1ccccc1 (stereo unspecified)
81 | 188 to 190 °C | CCOC(=O)c1cnc(-c2cc3cccc(N)c3n2COC)s1
82 | 177 to 178 °C | O=C1CCCc2c1c1cccc(F)c1n2Cc1ccc(F)cc1
83 | 172 to 174 °C | NN(CCO)c1ccc(-c2ccc(Cl)cc2)nn1
84 | 70 to 73 °C | COc1cccc(NCc2sccc2S(=O)(=O)Nc2onc(C)c2Br)c1
85 | 191 °C | CC(C)(C)C(=O)Oc1cccc2c1C(=O)c1c(OC(=O)C(C)(C)C)cccc1C2C(=O)c1ccccc1
86 | 168 to 170 °C | OCc1cn(-c2cccc3cccnc23)cn1
87 | > 300 °C | O=C(Nc1ccc(-c2c[nH]c(=O)cn2)cc1)c1ccccc1
88 | 72 to 74 °C | Clc1ccc(C(Cl)c2cc3cc(Cl)cc(Cl)c3o2)cc1 (stereo unspecified)
89 | 188 to 190 °C | O=C(O)c1ccc(S(F)(F)(F)(F)F)cc1
90 | 73 °C | CCOP(=O)(Cc1c(C)cc(O)cc1C1CCCCC1)OCC
91 | 85 to 87 °C | CCOC(=O)CN(C(=O)C(F)(F)F)C(NC(C)C)P(=O)(O)OSCC (stereo unspecified)
92 | 129 to 131 °C | O=C(/C=C/C=C/c1ccccc1Cl)NCCCCCC(=O)NO
93 | 119 to 121 °C | CCOC(=O)c1c[nH]c(Cc2ccc(OC)cc2)n1
94 | 167 to 168 °C | Cc1oc(-c2ccccc2)nc1CCC(N)=S
95 | 141 to 146 °C | NS(=O)(=O)c1ccccc1C1CCOC1=O (stereo unspecified)
96 | 97 to 98 °C | CCOC(=O)C1CCCN(CCC2CCc3cc(OCc4ccc(-c5ccccc5)cc4)ccc3C2)C1 (stereo unspecified)
97 | 88 to 92 °C | COc1cc(Cl)c(C(=O)c2ccccc2F)c(OC)c1
98 | 127 to 130 °C | C=CCSc1nnc(C(C)(C)C)[nH]1
99 | 219 to 220 °C | CC1CN(C(P(=O)(O)O)P(=O)(O)O)CC(C)S1 (stereo unspecified)
100 | 70 °C | CCCC1(O)CSC(=S)N1c1cccc(C)n1 (stereo unspecified)
101 | 114 to 118 °C | CCCOc1cccc(C(=O)O)c1O
